Measurements from patent US12227496B2 (BRISTOL-MYERS SQUIBB COMPANY, priority 2019, dated 2025).

Biological target: T1, human FXR (Homo sapiens, UniProt Q96RI1)
T1 construct: expressed in transfected cells; host or cells: HEK293 cells stably carrying a 5xGal4-response-element firefly luciferase reporter, transiently transfected with pcDNA3.1-Gal4-FXR
T1 sequence (Q96RI1 262-486 limits assumed): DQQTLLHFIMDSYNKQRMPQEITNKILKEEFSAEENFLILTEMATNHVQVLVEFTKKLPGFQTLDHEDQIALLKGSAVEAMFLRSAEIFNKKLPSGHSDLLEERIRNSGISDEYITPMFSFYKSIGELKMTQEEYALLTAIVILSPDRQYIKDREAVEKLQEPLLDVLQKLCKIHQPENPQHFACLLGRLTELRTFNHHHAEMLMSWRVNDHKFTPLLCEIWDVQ
Test: transient human FXR/Gal4-luciferase reporter assay
Type: cell-based
Settings: Gal4-hFXR LBD fusion, luciferase reporter in HEK293 cells; response relative to 8 μM GW-4064
Outline: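 HEK293 cells stably carrying a 5×Gal4-response-element firefly luciferase reporter were transiently transfected with Gal4-hFXR. They were then incubated overnight at 37 °C with compound serial dilutions in medium containing 10% charcoal/dextran-stripped FBS. Luminescence was read after Steady-Glo addition.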

Compound	EC50 [nM]
Cc1noc(C23CCC(CN(C(=O)C4CCCCC4)c4cccc(-c5cnc(C6CCOCC6)o5)c4)(CC2)CC3)n1 [Example 33, N-((4-(3-methyl-1,2,4-oxadiazol-5-yl)bicyclo[2.2.2]octan-1-yl)methyl)-N-(3-(2-(tetrahydro-2H-pyran-4-yl)oxazol-5-yl)phenyl)cyclohexanecarboxamide]	949
CN1CCC(C(=O)N(CC23CCC(c4cc(C5CC5)nn4C)(CC2)CC3)c2cccc(-c3cc(C4CC4)no3)c2)CC1 [Example 140, N-((4-(3-cyclopropyl-1-methyl-1H-pyrazol-5-yl)bicyclo[2.2.2]octan-1-yl)methyl)-N-(3-(3-cyclopropylisoxazol-5-yl)phenyl)-1-methylpiperidine-4-carboxamide]	2640
CC(C)(C)c1noc(C23CCC(CN(C(=O)C4CCOCC4)c4cccc(-c5cc(C6CC6)on5)c4)(CC2)CC3)n1 [Example 161, N-((4-(3-(tert-butyl)-1,2,4-oxadiazol-5-yl)bicyclo[2.2.2]octan-1-yl)methyl)-N-(3-(5-cyclopropylisoxazol-3-yl)phenyl)tetrahydro-2H-pyran-4-carboxamide]	77
CC(C)(C)c1noc(C23CCC(CN(C(=O)C4CCC(F)(F)CC4)c4cccc(-c5cc(C6CC6)on5)c4)(CC2)CC3)n1 [Example 159, N-((4-(3-(tert-butyl)-1,2,4-oxadiazol-5-yl)bicyclo[2.2.2]octan-1-yl)methyl)-N-(3-(5-cyclopropylisoxazol-3-yl)phenyl)-4,4-difluorocyclohexane-1-carboxamide]	78
COc1cc(-c2cccc(N(CC34CCC(c5nnnn5C)(CC3)CC4)C(=O)C3CCCCC3)c2)ccn1 [Example 100, N-(3-(2-methoxypyridin-4-yl)phenyl)-N-((4-(1-methyl-1H-tetrazol-5-yl)bicyclo[2.2.2]octan-1-yl)methyl)cyclohexanecarboxamide]	506
CCOc1ccc(-c2cc(N(CC34CCC(c5nc(C(C)(C)C)no5)(CC3)CC4)C(=O)C3CCC(C)(O)CC3)ccc2F)cc1 (stereo not drawn) [Example 166, N-((4-(3-(tert-butyl)-1,2,4-oxadiazol-5-yl)bicyclo[2.2.2]octan-1-yl)methyl)-N-(4′-ethoxy-6-fluoro-[1,1′-biphenyl]-3-yl)-4-hydroxy-4-methylcyclohexane-1-carboxamide]	1080
CC(F)(F)c1nc(C23CCC(CN(C(=O)C4CCC(F)(F)CC4)c4cccc(-c5cc(C6CC6)on5)c4)(CC2)CC3)no1 [Example 154, N-(3-(5-cyclopropylisoxazol-3-yl)phenyl)-N-((4-(5-(1,1-difluoroethyl)-1,2,4-oxadiazol-3-yl)bicyclo[2.2.2]octan-1-yl)methyl)-4,4-difluorocyclohexane-1-carboxamide]	57
O=C(N1CCC(N2CCCCC2)CC1)N(CC12CCC(c3nc(C4CC4)no3)(CC1)CC2)c1cccc(-c2nc(C3CC3)no2)c1 [Example 64, N-((4-(3-cyclopropyl-1,2,4-oxadiazol-5-yl)bicyclo[2.2.2]octan-1-yl)methyl)-N-(3-(3-cyclopropyl-1,2,4-oxadiazol-5-yl)phenyl)-[1,4′-bipiperidine]-1′-carboxamide]	4820
CCOC(=O)c1coc(-c2cccc(N(CC34CCC(c5nc(C)no5)(CC3)CC4)C(=O)C3CCCCC3)c2)n1 [Example 19, Ethyl 2-(3-(N-((4-(3-methyl-1,2,4-oxadiazol-5-yl)bicyclo[2.2.2]octan-1-yl)methyl)cyclohexanecarboxamido)phenyl)oxazole-4-carboxylate]	1560
O=C(N1CCC(O)CC1)N(CC12CCC(c3nc(C4CC4)no3)(CC1)CC2)c1cccc(-c2nc(C3CC3)no2)c1 [Example 61, N-((4-(3-cyclopropyl-1,2,4-oxadiazol-5-yl)bicyclo[2.2.2]octan-1-yl)methyl)-N-(3-(3-cyclopropyl-1,2,4-oxadiazol-5-yl)phenyl)-4-hydroxypiperidine-1-carboxamide]	3670
O=C(C1CCCOC1)N(CC12CCC(c3nc(C4CC4)no3)(CC1)CC2)c1cccc(-c2cnc(C3CC3)o2)c1 (racemic) [Example 25, N-((4-(3-cyclopropyl-1,2,4-oxadiazol-5-yl)bicyclo[2.2.2]octan-1-yl)methyl)-N-(3-(2-cyclopropyloxazol-5-yl)phenyl)tetrahydro-2H-pyran-3-carboxamide]	74
O=C(C1CCC(F)(F)CC1)N(CC12CCC(c3noc(C4(C(F)(F)F)CC4)n3)(CC1)CC2)c1cccc(-c2cc(C3CC3)no2)c1 [Example 149, N-(3-(3-cyclopropylisoxazol-5-yl)phenyl)-4,4-difluoro-N-((4-(5-(1-(trifluoromethyl)cyclopropyl)-1,2,4-oxadiazol-3-yl)bicyclo[2.2.2]octan-1-yl)methyl)cyclohexane-1-carboxamide]	78
COc1cc(-c2cccc(N(CC34CC(c5nc(C6CC6)no5)(C3)C4)C(=O)C3CCCCC3)c2)ccn1 [Example 96, N-((3-(3-cyclopropyl-1,2,4-oxadiazol-5-yl)bicyclo[1.1.1]pentan-1-yl)methyl)-N-(3-(2-methoxypyridin-4-yl)phenyl)cyclohexanecarboxamide]	3430
COc1cccc(-c2cccc(N(CC34CCC(c5nc(C)no5)(CC3)CC4)C(=O)C3CCCCC3)c2)c1 [Example 72, N-(3′-methoxy-[1,1′-biphenyl]-3-yl)-N-((4-(3-methyl-1,2,4-oxadiazol-5-yl)bicyclo[2.2.2]octan-1-yl)methyl)cyclohexanecarboxamide]	307
CCOc1ccc(-c2cccc(N(CC34CCC(c5noc(C(C)(F)F)n5)(CC3)CC4)C(=O)C3CCC(F)(F)CC3)c2)cc1 [Example 113, N-((4-(5-(1,1-difluoroethyl)-1,2,4-oxadiazol-3-yl)bicyclo[2.2.2]octan-1-yl)methyl)-N-(4′-ethoxy-[1,1′-biphenyl]-3-yl)-4,4-difluorocyclohexane-1-carboxamide]	665
O=C(C1CCOCC1)N(CC12CCC(c3nc(C4CC4)no3)(CC1)CC2)c1cccc(-c2cc(C3CC3)no2)c1 [Example 153, N-((4-(3-cyclopropyl-1,2,4-oxadiazol-5-yl)bicyclo[2.2.2]octan-1-yl)methyl)-N-(3-(3-cyclopropylisoxazol-5-yl)phenyl)tetrahydro-2H-pyran-4-carboxamide]	57
CN1CCN(C(=O)N(CC23CCC(c4nc(C5CC5)no4)(CC2)CC3)c2cccc(-c3nc(C4CC4)no3)c2)CC1 [Example 59, N-((4-(3-cyclopropyl-1,2,4-oxadiazol-5-yl)bicyclo[2.2.2]octan-1-yl)methyl)-N-(3-(3-cyclopropyl-1,2,4-oxadiazol-5-yl)phenyl)-4-methylpiperazine-1-carboxamide]	1380
O=C(C1CCCOC1)N(CC12CCC(c3nc(C4CC4)no3)(CC1)CC2)c1cccc(-c2nc(C3CC3)no2)c1 (racemic) [Example 16, N-((4-(3-cyclopropyl-1,2,4-oxadiazol-5-yl)bicyclo[2.2.2]octan-1-yl)methyl)-N-(3-(3-cyclopropyl-1,2,4-oxadiazol-5-yl)phenyl)tetrahydro-2H-pyran-3-carboxamide]	226
CC(F)(F)c1nc(C23CCC(CN(C(=O)C4CCS(=O)(=O)CC4)c4cccc(-c5cc(C6CC6)on5)c4)(CC2)CC3)no1 [Example 155, N-(3-(5-cyclopropylisoxazol-3-yl)phenyl)-N-((4-(5-(1,1-difluoroethyl)-1,2,4-oxadiazol-3-yl)bicyclo[2.2.2]octan-1-yl)methyl)tetrahydro-2H-thiopyran-4-carboxamide 1,1-dioxide]	289
O=C(C1CCC(F)(F)CC1)N(CC12CCC(c3nc(CC4CC4)no3)(CC1)CC2)c1cccc(-c2nc(C3CC3)no2)c1 [Example 46, N-(3-(3-cyclopropyl-1,2,4-oxadiazol-5-yl)phenyl)-N-((4-(3-(cyclopropylmethyl)-1,2,4-oxadiazol-5-yl)bicyclo[2.2.2]octan-1-yl)methyl)-4,4-difluorocyclohexane-1-carboxamide]	633
CC(C)(C)c1nnc(C23CCC(CN(C(=O)C4CCC(F)(F)CC4)c4cccc(-c5nc(C6CC6)no5)c4)(CC2)CC3)o1 [Example 123, N-((4-(5-(tert-Butyl)-1,3,4-oxadiazol-2-yl)bicyclo[2.2.2]octan-1-yl)methyl)-N-(3-(3-cyclopropyl-1,2,4-oxadiazol-5-yl)phenyl)-4,4-difluorocyclohexane-1-carboxamide]	280
COc1cccc(-c2cccc(N(CC34CCC(c5nc(C6CC6)no5)(CC3)CC4)C(=O)C3CCCCC3)c2)c1 [Example 74, N-((4-(3-cyclopropyl-1,2,4-oxadiazol-5-yl)bicyclo[2.2.2]octan-1-yl)methyl)-N-(3′-methoxy-[1,1′-biphenyl]-3-yl)cyclohexanecarboxamide]	151
Cn1cc(-c2cccc(N(CC34CCC(c5nc(C6CC6)no5)(CC3)CC4)C(=O)C3CCCOC3)c2)nc1C1CC1 (racemic) [Example 68, N-((4-(3-cyclopropyl-1,2,4-oxadiazol-5-yl)bicyclo[2.2.2]octan-1-yl)methyl)-N-(3-(2-cyclopropyl-1-methyl-1H-imidazol-4-yl)phenyl)tetrahydro-2H-pyran-3-carboxamide]	4100
COc1cc(-c2cccc(N(CC34CC(c5nc(C6CCOCC6)no5)(C3)C4)C(=O)C3CCCCC3)c2)ccn1 [Example 97, N-(3-(2-methoxypyridin-4-yl)phenyl)-N-((3-(3-(tetrahydro-2H-pyran-4-yl)-1,2,4-oxadiazol-5-yl)bicyclo[1.1.1]pentan-1-yl)methyl)cyclohexanecarboxamide]	1710
